Source: PubChem BioAssay AID248 (DTP/NCI, 2004)
Values joined by “and” are separate entries in the source; they are usually repeats but may differ in a detail not shown here. Equal entries are not always repeated. Inconclusive results and toxic doses are left out. No stated cut-off is given here; in the data, active means T/C of 150% or more; inactive means T/C below 125%.

System: L1210 leukemia ip in BDF1 mice, survival T/C
Experiment: NCI In Vivo Anticancer Drug Screen. Data for tumor model L1210 Leukemia (intraperitoneal) in B6D2F1 (BDF1) mice
Details: endpoint: mean survival time, higher = longer survival
How it was run: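 Transplantable tumor model; survival measured in treated vs vehicle control mice. Value = treated/control.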

[1] = dose: 100.0 mg/kg/injection, schedule: Q04DX003 (ip), vehicle: saline with Tween-80
[2] = dose: 200.0 mg/kg/injection, schedule: Q04DX003 (ip), vehicle: saline with Tween-80
[3] = dose: 400.0 mg/kg/injection, schedule: Q04DX003 (ip), vehicle: saline with Tween-80
[4] = dose: 100.0 mg/kg/injection, schedule: Q04DX003 (ip), vehicle: Klucel (hydroxypropylcellulose) (HPC)
[5] = dose: 200.0 mg/kg/injection, schedule: Q04DX003 (ip), vehicle: Klucel (hydroxypropylcellulose) (HPC)
[6] = dose: 400.0 mg/kg/injection, schedule: Q04DX003 (ip), vehicle: Klucel (hydroxypropylcellulose) (HPC)
[7] = dose: 100.0 mg/kg/injection, schedule: Q01DX001 (ip), vehicle: saline
[8] = dose: 100.0 mg/kg/injection, schedule: Q04DX003 (ip), vehicle: saline
[9] = dose: 200.0 mg/kg/injection, schedule: Q01DX001 (ip), vehicle: saline
[10] = dose: 200.0 mg/kg/injection, schedule: Q04DX003 (ip), vehicle: saline
[11] = dose: 400.0 mg/kg/injection, schedule: Q01DX001 (ip), vehicle: saline
[12] = dose: 400.0 mg/kg/injection, schedule: Q04DX003 (ip), vehicle: saline
[13] = dose: 50.0 mg/kg/injection, schedule: Q01DX009 (ip), vehicle: Klucel (hydroxypropylcellulose) (HPC)
[14] = dose: 100.0 mg/kg/injection, schedule: Q01DX009 (ip), vehicle: Klucel (hydroxypropylcellulose) (HPC)
[15] = dose: 200.0 mg/kg/injection, schedule: Q01DX009 (ip), vehicle: Klucel (hydroxypropylcellulose) (HPC)
[16] = dose: 50.0 mg/kg/injection, schedule: Q01DX001 (ip), vehicle: saline
[17] = dose: 400.0 mg/kg/injection, schedule: Q01DX009 (ip), vehicle: Klucel (hydroxypropylcellulose) (HPC)

Measured: T/C

COc1cc2cc(-c3cc(OC)c(OC)c(OC)c3)c3c(c2cc1OC)CNC3
inactive: dose: 12.5 mg/kg/injection, schedule: Q01DX009 (ip), vehicle: water 103 % of control | dose: 25.0 mg/kg/injection, schedule: Q01DX009 (ip), vehicle: water 93 % of control | dose: 50.0 mg/kg/injection, schedule: Q01DX009 (ip), vehicle: water 97 % of control | dose: 100.0 mg/kg/injection, schedule: Q01DX009 (ip), vehicle: water 102 % of control and 86 % of control | dose: 100.0 mg/kg/injection, schedule: Q04DX003 (ip), vehicle: water 102 % of control | dose: 200.0 mg/kg/injection, schedule: Q04DX003 (ip), vehicle: water 98 % of control | dose: 400.0 mg/kg/injection, schedule: Q04DX003 (ip), vehicle: water 109 % of control

O=C(Oc1ccncc1)c1ccccc1
inactive: dose: 100.0 mg/kg/injection, schedule: Q01DX001 (ip), vehicle: saline with Tween-80 92 % of control | dose: 200.0 mg/kg/injection, schedule: Q01DX001 (ip), vehicle: saline with Tween-80 96 % of control | dose: 400.0 mg/kg/injection, schedule: Q01DX001 (ip), vehicle: saline with Tween-80 103 % of control

CCOP(OCC)N1CCCCCC1=O
inactive: [1] 100 % of control | [2] 95 % of control | [3] 89 % of control

C=CCN(CC=C)CCSC(=S)NCCOC
inactive: dose: 100.0 mg/kg/injection, schedule: Q01DX001 (ip), vehicle: acetone 100 % of control | dose: 100.0 mg/kg/injection, schedule: Q04DX003 (ip), vehicle: acetone 107 % of control | dose: 200.0 mg/kg/injection, schedule: Q01DX001 (ip), vehicle: acetone 97 % of control | dose: 200.0 mg/kg/injection, schedule: Q04DX003 (ip), vehicle: acetone 106 % of control | dose: 400.0 mg/kg/injection, schedule: Q01DX001 (ip), vehicle: acetone 90 % of control | dose: 400.0 mg/kg/injection, schedule: Q04DX003 (ip), vehicle: acetone 107 % of control

CC1CCC2(CC3C(CC(C4CCC5CC(O)CCC5(C)C4CC(=O)O)C3(C)O)O2)OC1 (stereo not given)
inactive: dose: 75.0 mg/kg/injection, schedule: Q04DX003 (ip), vehicle: saline 89 % of control | dose: 150.0 mg/kg/injection, schedule: Q04DX003 (ip), vehicle: saline 100 % of control | dose: 300.0 mg/kg/injection, schedule: Q04DX003 (ip), vehicle: saline 87 % of control

Cc1cc(=O)[nH]c(N)n1
inactive: [4] 114 % of control | [1] 98 % of control | [5] 101 % of control | [2] 98 % of control | [6] 93 % of control | [3] 96 % of control

Cc1ccc(OS(=O)(=O)C2CC2c2ccccc2)cc1 (stereo not given)
inactive: [7] 92 % of control | [8] 102 % of control | [9] 97 % of control | [10] 98 % of control | [11] 98 % of control | [12] 94 % of control

CN=C(N)C(C)SS(=O)(=O)O (stereo not given)
inactive: [13] 101 % of control | dose: 50.0 mg/kg/injection, schedule: Q04DX002 (ip), vehicle: Klucel (hydroxypropylcellulose) (HPC) 106 % of control | [14] 107 % of control | dose: 100.0 mg/kg/injection, schedule: Q04DX002 (ip), vehicle: Klucel (hydroxypropylcellulose) (HPC) 92 % of control | [15] 104 % of control | dose: 200.0 mg/kg/injection, schedule: Q04DX002 (ip), vehicle: Klucel (hydroxypropylcellulose) (HPC) 89 % of control and 91 % of control

Cc1ccc(C(=O)c2ccc(Cl)cc2)cc1
inactive: [16] 90 % of control | [7] 98 % of control | [9] 102 % of control | [11] 96 % of control

OC1C2CCN(CC2)C1CN1CCOCC1 (stereo not given)
inactive: [7] 107 % of control | dose: 100.0 mg/kg/injection, schedule: Q01DX009 (ip), vehicle: saline 94 % of control | [9] 108 % of control | dose: 200.0 mg/kg/injection, schedule: Q01DX009 (ip), vehicle: saline 91 % of control | [11] 97 % of control | dose: 400.0 mg/kg/injection, schedule: Q01DX009 (ip), vehicle: saline 91 % of control

O=[N+]([O-])c1ccc2c(c1)=N/C(=N\c1nc(O)c(O)[nH]1)N=2
inactive: [4] 101 % of control | [5] 98 % of control | [6] 104 % of control

C=CCCCCCCCCC(=O)NN1CCOCC1
inactive: [1] 98 % of control | [2] 92 % of control | [3] 92 % of control

O=C(CCC1CCCC1)c1ccccc1
inactive: dose: 12.5 mg/kg/injection, schedule: Q04DX002 (ip), vehicle: saline 100 % of control | dose: 25.0 mg/kg/injection, schedule: Q04DX002 (ip), vehicle: saline 98 % of control | dose: 50.0 mg/kg/injection, schedule: Q04DX002 (ip), vehicle: saline 98 % of control | dose: 100.0 mg/kg/injection, schedule: Q04DX002 (ip), vehicle: saline 98 % of control | dose: 200.0 mg/kg/injection, schedule: Q04DX002 (ip), vehicle: saline 98 % of control | dose: 400.0 mg/kg/injection, schedule: Q04DX002 (ip), vehicle: saline 91 % of control

Cc1c2oc3c(C)ccc(C(=O)NCCN4CCOCC4)c3nc-2c(C(=O)NCCN2CCOCC2)c(N)c1=O
inactive: dose: 100.0 mg/kg/injection, schedule: Q04DX002 (ip), vehicle: saline with Tween-80 98 % of control | dose: 200.0 mg/kg/injection, schedule: Q04DX002 (ip), vehicle: saline with Tween-80 92 % of control

COC(=O)c1n[nH]c(C2OCC3OC(C)(C)OC32)c1Br (stereo not given)
inactive: dose: 100.0 mg/kg/injection, schedule: Q01DX005 (ip), vehicle: saline 100 % of control | dose: 200.0 mg/kg/injection, schedule: Q01DX005 (ip), vehicle: saline 91 % of control

COc1ccc(Cl)cc1N1C(=O)C2C(C1=O)C1(Cl)C(Cl)=C(Cl)C2(Cl)C1(Cl)Cl (stereo not given)
inactive: [13] 91 % of control | [14] 101 % of control | [4] 98 % of control | [5] 98 % of control

CC(C)Cc1c(N)nc(=O)[nH]c1C(=O)O
inactive: dose: 75.0 mg/kg/injection, schedule: Q01DX009 (ip), vehicle: Klucel (hydroxypropylcellulose) (HPC) 95 % of control | dose: 100.0 mg/kg/injection, schedule: Q01DX001 (ip), vehicle: Klucel (hydroxypropylcellulose) (HPC) 96 % of control | dose: 150.0 mg/kg/injection, schedule: Q01DX009 (ip), vehicle: Klucel (hydroxypropylcellulose) (HPC) 98 % of control | dose: 200.0 mg/kg/injection, schedule: Q01DX001 (ip), vehicle: Klucel (hydroxypropylcellulose) (HPC) 100 % of control | dose: 300.0 mg/kg/injection, schedule: Q01DX009 (ip), vehicle: Klucel (hydroxypropylcellulose) (HPC) 101 % of control | dose: 400.0 mg/kg/injection, schedule: Q01DX001 (ip), vehicle: Klucel (hydroxypropylcellulose) (HPC) 100 % of control

CC(=O)Nc1c(NN=C(C)C)[nH]c(=O)[nH]c1=O
inactive: [16] 98 % of control | [7] 96 % of control | [9] 102 % of control | [11] 98 % of control

O=Cc1cn[nH]c1-c1ccccc1
inactive: [14] 97 % of control | [4] 95 % of control | [15] 97 % of control | [5] 98 % of control | [17] 106 % of control | [6] 98 % of control

COc1cc(OC)c(Br)c(OC)c1
inactive: dose: 100.0 mg/kg/injection, schedule: Q01DX009 (ip), vehicle: other 108 % of control | [8] 94 % of control | dose: 200.0 mg/kg/injection, schedule: Q01DX009 (ip), vehicle: other 93 % of control | [10] 96 % of control | dose: 400.0 mg/kg/injection, schedule: Q01DX009 (ip), vehicle: other 101 % of control | [12] 97 % of control

c1ccc([CH2][Ge]([c]2ccccc2)([c]2ccccc2)[c]2ccccc2)cc1
inactive: dose: 25.6 mg/kg/injection, schedule: Q04DX002 (ip), vehicle: saline with Tween-80 89 % of control | dose: 64.0 mg/kg/injection, schedule: Q04DX002 (ip), vehicle: saline with Tween-80 93 % of control | [1] 104 % of control | dose: 160.0 mg/kg/injection, schedule: Q04DX002 (ip), vehicle: saline with Tween-80 89 % of control | [2] 96 % of control | dose: 400.0 mg/kg/injection, schedule: Q04DX002 (ip), vehicle: saline with Tween-80 89 % of control | [3] 102 % of control

COc1ccc(NC(=O)Nc2cc(Cl)ccc2OC)c(OC)c1
inactive: [14] 94 % of control | [4] 103 % of control | [15] 102 % of control | [5] 101 % of control | [17] 96 % of control | [6] 101 % of control
